{"source": "patent US20220184183A1", "about": "“PHARMACEUTICAL COMPOSITION, FOR PREVENTING OR TREATING INFLAMMATORY DISEASES, COMPRISING OSTEOCALCIN” (GENEROATH CO., LTD., priority 2019, published 2022)", "type_in_all_cases": "cell-based", "key": {"[1]": {"system": "JNK, p38 MAPK, and NF-κB", "assay": "Subcellular signaling in TNF-α-stimulated skeletal muscle cells (western blot)", "conditions": "C2C12; ucOCN 0.5 ng/ml pretreatment 1, 10, 30 minutes; TNF-α 10 ng/ml; FIG. 4", "protocol": "In order to observe the effect of undercarboxylated osteocalcin on the subcellular signaling process on the inflammatory response induced by TNF-α in skeletal muscle cells, the following experiment was performed.\n(§1) Undercarboxylated osteocalcin (ucOCN) was treated at a concentration of 0.5 ng/ml in the medium (DMEM medium containing 10% heat-inactivated fetal bovine serum (FBS), 100 U/mL of penicillin and […] of streptomycin, hereinafter the same), and skeletal muscle cell lines (C2C12) were prepared in three groups, and cultured and pre-treated at 5% CO2, 37° C. for 1 minute, 10 minutes, and 30 minutes, respectively.\n(§2) In order to induce an inflammatory response, each medium was treated with TNF-α 10 ng/ml, and cultured for 8 hours under the same conditions.\nFor the cultured cells of each group, the protein amount and phosphorylation level of JNK, p38 MAPK, and NF-κB in each group were measured through western blot."}, "[2]": {"system": "skeletal muscle cell line (C2C12)", "assay": "Level of reactive oxygen species in TNF-α-stimulated skeletal muscle cells (DAPI and CellRox staining)", "conditions": "ucOCN 0.5 and 5 ng/ml vs untreated group, TNF-α 10 ng/ml, FIG. 3", "protocol": "(§3) First, skeletal muscle cell lines (C2C12) were obtained. Undercarboxylated osteocalcin (ucOCN, purchased from Bachem, Switzerland) was treated in a medium (DMEM medium containing 10% heat-inactivated fetal bovine serum (FBS), 100 U/mL of penicillin and […] of streptomycin, hereinafter the same) at four different concentrations of 0 ng/ml, 0.5 ng/ml, 5 ng/ml and 50 ng/ml, and skeletal muscle cell lines (C2C12) were prepared in three groups and cultured and pre-treated at 5% CO2, 37° C. for 8 hours, 24 hours, and 48 hours, respectively.\n(§4) In order to induce an inflammatory response, each medium was treated with 10 ng/ml of TNF-α (purchased from Peprotech, USA), and cultured for 8 hours under the same conditions.\nIn order to identify the level of reactive oxygen species (ROS) in the undercarboxylated osteocalcin-treated cells by being induced inflammatory response with TNF-α in skeletal muscle cells, the following experiment was performed.\nThe cells obtained in Example 1.1 above were stained with DAPI and CellRox, and observed under a microscope."}, "[3]": {"system": "macrophage cell lines (RAW 264.7)", "assay": "TNF-α-induced inflammatory cytokines and inflammatory mediating enzyme proteins in immune cells (ELISA, western blot)", "conditions": "ucOCN 0.5, 5, 50 ng/ml pretreatment 8, 24, 48 hours, then TNF-α 10 ng/ml 8 hours, FIGS. 7 and 8", "protocol": "First, macrophage cell lines (RAW 264.7) were obtained as immune cells. Undercarboxylated osteocalcin (ucOCN) was treated in a medium at four different concentrations of 0 ng/ml, 0.5 ng/ml, 5 ng/ml and 50 ng/ml, and macrophage cell lines were prepared in three groups and cultured and pre-treated at 5% CO2, 37° C. for 8 hours, 24 hours, and 48 hours, respectively.\nIn order to induce an inflammatory response, each medium was treated with 10 ng/ml of TNF-α, and cultured for 8 hours under the same conditions to obtain a supernatant.\nIn order to observe changes in the expression level of TNF-α-induced inflammatory cytokines (TNF-α and IL-6) and inflammatory mediating enzyme proteins (iNOS and COX-2) in immune cells by undercarboxylated osteocalcin, the following experiments were performed.\nIn each supernatant obtained from Example 2.1 above, the concentrations of TNF-α, IL-1β and IL-6 were measured through ELISA, and the expression level of […] was identified through western blot."}, "[4]": {"system": "NF-κB promoter", "assay": "TNF-α-induced NF-κB promoter (luciferase) activity", "conditions": "stated in the description, no method given"}, "[5]": {"system": "skeletal muscle cell line (C2C12)", "assay": "TNF-α-induced inflammatory cytokine production in skeletal muscle cells (ELISA, Real-Time PCR, western blot)", "protocol": "as §3, §4\nIn order to observe the change in the expression level of TNF-α-induced inflammatory cytokines (TNF-α, IL-1β and IL-6) in skeletal muscle cells due to undercarboxylated osteocalcin, the following experiment was performed.\nIn the cells obtained from Example 1.1 above, the concentrations of TNF-α, IL-1β and IL-6 were measured through ELISA, and the expression levels of RNA and protein of IL-1β and IL-6 were identified through Real-Time PCR and western blot."}, "[6]": {"system": "NF-κB", "assay": "Inhibition of TNF-α-induced NF-κB activity in skeletal muscle cells (western blot, immunofluorescence)", "protocol": "In order to observe the effect of undercarboxylated osteocalcin on the activity of NF-κB induced by TNF-α in skeletal muscle cells, the following experiment was performed.\nas §1, §2\nFor the cultured cells of each group, the phosphorylation level and the protein amounts in the nucleus of IκBα, IKK (hereinafter, intracytoplasmic) and P65 NF-κB in each group were measured through western blot, and immunofluorescence analysis for each group was performed."}}, "note": "Where no end group is shown, it is not given here."}
{"substance": "undercarboxylated osteocalcin (YLYQWLGAPVPYPDPLEPRREVCELNPDCDELADHIGFQEAYRRFYGPV; not fully specified; ends and bridges not checked; UniProt P02818 52-100, looked up) [osteocalcin in which at least one of the three gamma-carboxylglutamate residues is not γ-carboxylated; purchased from Bachem, Switzerland]", "values": [{"measurement": "protein amount of NF-κB", "setting": "[1]", "value": "significantly inhibited"}, {"measurement": "protein amounts and phosphorylation levels of JNK and p38 MAPK", "setting": "[1]", "value": "significantly inhibited"}, {"measurement": "level of reactive oxygen species", "setting": "[2]", "value": "significantly inhibited"}, {"measurement": "production of inflammatory cytokines TNF-α, IL-1β, IL-6 and inflammatory mediating enzyme proteins iNOS and COX-2", "setting": "[3]", "value": "inhibited the production of inflammatory cytokines and inflammatory mediating enzyme proteins"}, {"measurement": "TNF-α-induced NF-κB luciferase activity", "setting": "[4]", "value": "significantly inhibits"}, {"measurement": "IL-1β production", "setting": "[5]; TNF-α 10 ng/ml, FIG. 1", "value": "inhibitory effect of IL-1β production among inflammatory cytokines was remarkably shown"}, {"measurement": "IL-1β production (protein amount)", "setting": "[5]; all treatment concentrations of ucOCN (0.5, 5, 50 ng/ml), FIG. 2", "value": "remarkable production inhibitory effect"}, {"measurement": "inhibition of inflammatory cytokine production by treatment time", "setting": "[5]; group treated with ucOCN for 8 hours and 48 hours, FIG. 1", "value": "remarkably excellent inhibitory effect"}, {"measurement": "TNF-α (protein amount)", "setting": "[5]; group treated with ucOCN for 8 hours, FIG. 2", "value": "excellent inhibitory effect"}, {"measurement": "IL-6 (protein amount)", "setting": "[5]; ucOCN 0.5 ng/ml and 5 ng/ml within 24 hours, FIG. 2", "value": "remarkable inhibitory effect"}, {"measurement": "production of inflammatory cytokines TNF-α, IL-1β and IL-6", "setting": "[5]; ucOCN 0.5, 5, 50 ng/ml pretreatment 8, 24, 48 hours, then TNF-α 10 ng/ml 8 hours, FIG. 1", "value": "inhibited the production of inflammatory cytokines"}, {"measurement": "cytoplasmic-to-nuclear translocation of NF-κB induced by TNF-α", "setting": "[6]; C2C12, immunofluorescence analysis, FIG. 6", "value": "inhibited cytoplasmic-to-nuclear translocation of NF-κB"}, {"measurement": "PHOPHO-IκBα and total IκBα (TNF-α alone: phospho increased, total decreased)", "setting": "[6]; C2C12 cytoplasm, ucOCN 0.5 ng/ml, TNF-α 10 ng/ml, FIG. 5", "value": "showed the opposite result"}]}
